Converted amounts (≈) assume the structure as drawn. Where two headings read alike, the source gives them in different places.
Columns and labels:
H. pylori urease (HPU) [1] = target: T1, H. pylori urease (HPU) (Helicobacter pylori, UniProt P69996); test: tandem-well NH3 assay, Nessler's reagent, crude extract; type: biochemical
jack bean urease (JBU) [2] = target: T2, jack bean urease (JBU) (Canavalia ensiformis, UniProt P07374); test: tandem-well NH3 assay, salicylic acid-hypochlorite; type: biochemical
T2 sequence (P07374 whole entry, looked up): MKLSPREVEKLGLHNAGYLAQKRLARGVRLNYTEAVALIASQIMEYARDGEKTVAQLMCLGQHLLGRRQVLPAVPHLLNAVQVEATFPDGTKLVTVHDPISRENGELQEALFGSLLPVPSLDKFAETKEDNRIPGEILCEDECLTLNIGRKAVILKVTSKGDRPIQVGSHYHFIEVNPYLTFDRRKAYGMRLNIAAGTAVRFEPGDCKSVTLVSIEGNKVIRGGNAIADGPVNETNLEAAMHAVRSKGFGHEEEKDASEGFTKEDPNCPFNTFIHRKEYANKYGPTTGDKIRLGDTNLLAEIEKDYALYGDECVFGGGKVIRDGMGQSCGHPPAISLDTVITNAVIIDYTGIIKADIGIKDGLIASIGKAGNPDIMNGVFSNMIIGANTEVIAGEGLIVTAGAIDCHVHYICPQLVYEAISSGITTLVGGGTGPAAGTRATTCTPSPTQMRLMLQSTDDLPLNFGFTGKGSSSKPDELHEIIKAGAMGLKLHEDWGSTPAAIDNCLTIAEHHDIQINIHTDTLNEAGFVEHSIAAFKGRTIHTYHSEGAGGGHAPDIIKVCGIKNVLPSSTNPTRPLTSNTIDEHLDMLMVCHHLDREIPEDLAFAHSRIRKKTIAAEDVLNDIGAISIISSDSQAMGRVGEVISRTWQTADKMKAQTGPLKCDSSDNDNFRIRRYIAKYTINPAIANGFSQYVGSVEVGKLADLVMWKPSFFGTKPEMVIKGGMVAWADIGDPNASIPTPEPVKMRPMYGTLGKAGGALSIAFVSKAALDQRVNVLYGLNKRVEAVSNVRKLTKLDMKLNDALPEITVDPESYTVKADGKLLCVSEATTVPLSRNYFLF

human CBS (hCBS) = target: T3, human CBS (hCBS) (Homo sapiens, UniProt P35520); test: tandem-well H2S assay; type: biochemical
T3 sequence (P35520 1-551): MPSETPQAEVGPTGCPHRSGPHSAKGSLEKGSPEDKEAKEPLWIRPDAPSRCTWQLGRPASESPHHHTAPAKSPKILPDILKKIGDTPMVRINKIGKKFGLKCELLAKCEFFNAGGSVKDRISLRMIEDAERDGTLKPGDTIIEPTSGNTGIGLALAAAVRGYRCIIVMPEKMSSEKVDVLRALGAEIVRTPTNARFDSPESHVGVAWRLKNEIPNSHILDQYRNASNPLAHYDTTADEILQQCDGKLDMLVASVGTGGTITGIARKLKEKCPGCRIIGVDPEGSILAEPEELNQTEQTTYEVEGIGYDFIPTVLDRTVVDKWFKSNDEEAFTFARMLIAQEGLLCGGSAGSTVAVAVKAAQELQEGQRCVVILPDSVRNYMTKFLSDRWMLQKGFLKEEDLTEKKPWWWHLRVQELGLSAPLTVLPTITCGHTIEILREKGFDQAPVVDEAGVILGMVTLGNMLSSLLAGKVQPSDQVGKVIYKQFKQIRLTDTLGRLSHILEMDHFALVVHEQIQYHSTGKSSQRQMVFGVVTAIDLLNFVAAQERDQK

human CSE (hCSE) = human CSE (hCSE) (Homo sapiens, UniProt P32929); test: tandem-well H2S assay; type: biochemical
human CSE (hCSE), sequence (P32929 whole entry): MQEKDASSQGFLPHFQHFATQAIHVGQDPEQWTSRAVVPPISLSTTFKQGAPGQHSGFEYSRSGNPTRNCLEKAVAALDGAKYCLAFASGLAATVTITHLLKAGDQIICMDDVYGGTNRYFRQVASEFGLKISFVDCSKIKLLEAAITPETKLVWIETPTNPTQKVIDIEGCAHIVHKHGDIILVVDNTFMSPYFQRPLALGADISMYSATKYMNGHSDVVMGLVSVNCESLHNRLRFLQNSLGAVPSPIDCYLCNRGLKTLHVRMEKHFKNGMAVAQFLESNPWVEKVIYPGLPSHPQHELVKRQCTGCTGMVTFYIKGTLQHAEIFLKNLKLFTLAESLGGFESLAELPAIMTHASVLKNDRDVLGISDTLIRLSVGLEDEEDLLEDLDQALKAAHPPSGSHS

O. anthropi urease (OAU) = type: biochemical, Brucella anthropi
H. pylori [3] = test: microbe, parasite or virus in culture; conditions: Helicobacter pylori, 72 h, read-out: H. pylori (MIC) µM
H. pylori urease (HPU) [4] = target: T1, H. pylori urease (HPU); test: cell-based
H. pylori [5] = test: microbe, parasite or virus in culture; conditions: Helicobacter pylori, 72 h, read-out: H. pylori (MIC) µg/ml
jack bean urease (JBU) [6] = target: T2, jack bean urease (JBU); test: enzyme kinetics, tandem-well NH3 assay; type: biochemical
jack bean urease (JBU) [7] = target: T2, jack bean urease (JBU); test: SPR, Biacore T200, JBU immobilised on CM5 chip; type: binding
jack bean urease (JBU) [8] = target: T2, jack bean urease (JBU); test: enzyme kinetics, tandem-well NH3 assay; type: biochemical; conditions: urea 12.5-200 mM; noncompetitive, covalent, allosteric (Cys313)
[9] = 25 mM urea, 100 μM NiCl2, 50 mM phosphate pH 7.4, 37 °C, 30 min preincubation

T1 sequence (P69996 whole entry): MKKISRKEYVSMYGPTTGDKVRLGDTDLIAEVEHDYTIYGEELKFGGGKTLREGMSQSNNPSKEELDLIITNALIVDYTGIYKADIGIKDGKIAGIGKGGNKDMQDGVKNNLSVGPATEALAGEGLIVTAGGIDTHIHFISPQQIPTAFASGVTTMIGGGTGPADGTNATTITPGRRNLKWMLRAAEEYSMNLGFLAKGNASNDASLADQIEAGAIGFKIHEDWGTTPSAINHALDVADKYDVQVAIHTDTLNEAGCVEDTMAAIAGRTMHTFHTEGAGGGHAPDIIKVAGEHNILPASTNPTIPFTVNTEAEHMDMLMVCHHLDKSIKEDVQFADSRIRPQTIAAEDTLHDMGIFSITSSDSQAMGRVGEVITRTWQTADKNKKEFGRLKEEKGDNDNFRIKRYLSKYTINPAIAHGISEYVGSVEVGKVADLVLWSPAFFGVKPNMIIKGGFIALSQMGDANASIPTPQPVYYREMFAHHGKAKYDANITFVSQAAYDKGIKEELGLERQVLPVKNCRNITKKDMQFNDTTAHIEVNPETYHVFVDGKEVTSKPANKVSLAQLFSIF
T1 sequence (P14916 whole entry partner): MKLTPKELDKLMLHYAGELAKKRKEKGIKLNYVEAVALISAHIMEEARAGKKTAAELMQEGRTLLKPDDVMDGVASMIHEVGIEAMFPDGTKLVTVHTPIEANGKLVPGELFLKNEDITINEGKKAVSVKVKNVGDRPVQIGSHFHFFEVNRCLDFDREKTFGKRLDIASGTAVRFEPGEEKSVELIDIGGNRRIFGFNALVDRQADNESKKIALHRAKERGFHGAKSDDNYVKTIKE

Compound | IC50 (H. pylori urease (HPU) [1]) [µM] | IC50 (jack bean urease (JBU) [2]) [µM] | IC50 (O. anthropi urease (OAU)) [µM] | MIC (H. pylori [3]) [µM] | MIC (H. pylori [5]) [µg/mL] | further results
NO [hydroxylamine] | > 20 | > 20 |  |  |  | 
O=C(CCCCCCC(=O)Nc1ccccc1)NO [vorinostat] | 14 ± 3.9 | 4.1 ± 1.9 |  |  |  | 
CCN(CC)C(=S)SSC(=S)N(CC)CC [disulfiram] | 8.9 ± 1.5 | 38.9 ± 2.7 | 35 ± 0.1 | 12.5 (≈ 3.71 µg/mL) | 4 (≈ 13.5 µM) | IC50 (human CBS (hCBS)): > 200 µM; IC50 (human CSE (hCSE)): > 200 µM; IC50 (H. pylori urease (HPU) [4]): 36.3 ± 1 µM
CCS(=O)(=O)CCn1c([N+](=O)[O-])cnc1C [Tinidazole] |  |  |  | > 2000 | > 512 | 
O=C(CCCCCCNC(=O)c1cnc(N(c2ccccc2)c2ccccc2)nc1)NO [ricolinostat] | > 20 | > 20 |  |  |  | 
CCCn1[se]c2ccccc2c1=O [compound 5, 2-Propyl-benzisoselenol-3-one] | > 10 | 1.4 ± 0.03 | 5.3 ± 0.9 |  |  | 
CC(=O)NO [acetohydroxamic acid] | 25.9 ± 1.2 | 162 ± 13.4 | 2.8 ± 0.9 |  | > 16 | IC50 (human CBS (hCBS)): > 200 µM; Ki (jack bean urease (JBU) [6]): 2.1 ± 0.8 µM; IC50 (human CSE (hCSE)): > 200 µM
COc1ccc2c(=O)n(-c3ccccc3)[se]c2c1 [compound 1] |  |  |  | 6.25 (≈ 1.9 µg/mL) | 2 (≈ 6.57 µM) | 
O=C(/C=C/c1cccc(S(=O)(=O)Nc2ccccc2)c1)NO [belinostat] | 3.2 ± 0.2 | 4.7 ± 0.5 |  |  |  | 
CNC(=O)[C@H](Cc1c[nH]c2ccccc12)NC(=O)[C@@H](CC(=O)NO)CC(C)C [ilomastat] | > 20 | > 20 |  |  |  | 
c1ccc(C[Se][Se]Cc2ccccc2)cc1 [dibenzyl diselenide] |  |  |  | > 200 | > 64 | 
Cc1ncc([N+](=O)[O-])n1CCO [Metronidazole] |  |  |  | > 3000 | > 512 | 
Cc1[nH]c2ccccc2c1CCNCc1ccc(/C=C/C(=O)NO)cc1 [panobinostat] | 0.1 ± 0.01 | 0.2 ± 0.006 | 0.07 ± 0.006 |  |  | IC50 (human CBS (hCBS)): > 200 µM; Ki (jack bean urease (JBU) [6]): 0.02 ± 0.01 µM; Kd (jack bean urease (JBU) [7]): 8.9 ± 0.4 µM; IC50 (human CSE (hCSE)): > 200 µM
O=c1c2ccccc2[se]n1-c1ccccc1 [ebselen] | 2.8 ± 0.5 | 0.4 ± 0.07 | 3 ± 1 | 12.5 (≈ 3.43 µg/mL) | 4 (≈ 14.6 µM) | IC50 (human CBS (hCBS)): > 200 µM; Kd (jack bean urease (JBU) [7]): 0.089 ± 0.005 µM; αKi (jack bean urease (JBU) [8]): 0.8 ± 0.2 µM; IC50 (human CSE (hCSE)): 44.3 ± 1.3 µM; IC50 (H. pylori urease (HPU) [4]): 5.7 ± 1.3 µM
COc1ccc2c(=O)n(-c3ccccc3)[se]c2c1 [compound 1, 2-Phenyl-6-methoxybenzoisoselen-3-one] |  |  | 7.5 ± 0.6 |  |  | IC50 (H. pylori urease (HPU) [1]; [9]): 2 ± 0.9 µM; IC50 (jack bean urease (JBU) [2]; [9]): 0.3 ± 0.007 µM
O=c1[nH][se]c2ccccc12 [compound 4] |  |  |  | 12.5 (≈ 2.48 µg/mL) | 2 (≈ 10.1 µM) | IC50 (H. pylori urease (HPU) [4]): 18.5 ± 1.2 µM
O=c1[nH][se]c2ccccc12 [compound 4, Benzisoselenol-3-one] | 1.1 ± 0.08 | 0.8 ± 0.008 | 2.2 ± 0.1 |  |  | 
CSn1[se]c2ccccc2c1=O [compound 6, 2-Methylthio-benzisoseleno-3-one] |  |  | 1.7 ± 0.1 |  |  | IC50 (H. pylori urease (HPU) [1]; [9]): 1.3 ± 0.4 µM; IC50 (jack bean urease (JBU) [2]; [9]): 0.3 ± 0.04 µM
O=C1c2ccccc2[Se](=O)N1c1ccccc1 (stereo not shown) [Ebselen oxide] | 1.5 ± 0.2 | 0.4 ± 0.005 | 3.3 ± 0.1 | 12.5 (≈ 3.63 µg/mL) | 4 (≈ 13.8 µM) | IC50 (H. pylori urease (HPU) [4]): 23.2 ± 1.1 µM
CN(C)Cc1c(C(=O)NCCOc2ccc(C(=O)NO)cc2)oc2ccccc12 [abexinostat] | 1.3 ± 0.2 | 1.4 ± 0.3 |  |  |  | 

Reference: paper doi:10.1101/2021.01.05.425432v2 (biorxiv, 2021)
